Measurements from patent US20130296425A1, “PROPHYLACTIC OR THERAPEUTIC AGENT FOR A PERIPHERAL NERVE DISORDER INDUCED BY ANTI-CANCER AGENTS” (NAGOYA INDUSTRIAL SCIENCE RESEARCH INSTITUTE, priority 2011, published 2013).

The molecules below were run on paclitaxel-induced peripheral nerve disorder rats (assay: Single intraperitoneal administration, hyperalgesia induced by paclitaxel (von Frey test)). Settings: Rattus norvegicus, ip, single i.p. dose 0.3 mg/kg, higher of the values after 1 hour and 5 hours, read-out: Recovery rate of 50% reaction threshold value (%).
Assay type: in vivo
Procedure: Male SD rats in six weeks age (one group comprised six rats) were used as experimental animals and the paclitaxel-induced peripheral nerve disorder rats were prepared in the same manner as in the above 1.[1](2). The test drug was administered intraperitoneally in a single dose so as to make it 0.3 mg/kg in any of the cases during the period of 18 to 25 days or 20 to 27 days after initiation of administration of paclitaxel.
A von Frey test was conducted in the same manner as in the above 1.[1](4) using the rats mentioned in the above (1) and each 50% reaction threshold value was measured. With regard to the higher 50% reaction threshold value between the 50% reaction threshold values after 1 hour and 5 hours from administration of a test drug, a recovery rate (%) of the 50% reaction threshold value was calculated.
Recovery rate (%) of 50% reaction threshold value={[(50% reaction threshold value after 1 hour or 5 hours from administration of test drug)−(50% reaction threshold value before administration of test drug)]÷[(Normal threshold value)−(50% reaction threshold value before administration of test drug)]}×100
In the case of `CCCCCCC/C=C/COC(=O)/C=C/CCCCCCC` [Compound 16, Trans-2-decenoic acid trans-2-decenyl ester], the inhibition in vivo at 0.3 mg/kg is reported as 94.4%.
With `CCCCCCC/C=C/C(=O)OCCCCCCC` [Compound 12, Trans-2-decenoic acid heptyl ester] the inhibition in vivo at 0.3 mg/kg was 21.3%.
`CCCCCCC/C=C/C(=O)OC(C)C` [Compound 6, Trans-2-decenoic acid isopropyl ester] showed an inhibition in vivo at 0.3 mg/kg of 10.2%.
In the case of `CCCCCC/C=C/CC(=O)OCC` [Compound 20, Trans-3-decenoic acid ethyl ester], the inhibition in vivo at 0.3 mg/kg is reported as 14.7%.
With `C=CCCCCCCCCOC(=O)/C=C/CCCCCCC` [Compound 17, Trans-2-decenoic acid trans-9-decenyl ester] the inhibition in vivo at 0.3 mg/kg was 54%.
Molecule `CCCCCCCCCC(=O)OCC` [Compound 2, Decanoic acid ethyl ester] has an inhibition in vivo at 0.3 mg/kg of 22.9%.
Work on `CCCCCCC/C=C/C(=O)OCCCCCCCCCC` [Compound 14, Trans-2-decenoic acid decyl ester] yielded an inhibition in vivo at 0.3 mg/kg of 32.2%.
`CCCCCCC/C=C/C(=O)OCCCC` [Compound 7, Trans-2-decenoic acid butyl ester] gave an inhibition in vivo at 0.3 mg/kg of 22.7%.
In the case of `CCCCCCC/C=C/C(=O)OC` [Compound 3, Trans-2-decenoic acid methyl ester], the inhibition in vivo at 0.3 mg/kg is reported as 63.2%.
For `CCCCCCC/C=C/C(=O)OCCCCCC` [Compound 11, Trans-2-decenoic acid hexyl ester], the inhibition in vivo at 0.3 mg/kg was 60.8%.
`CCCCCCC/C=C/C(=O)OC(C)(C)C` [Compound 10, Trans-2-decenoic acid tert-butyl ester] was tested, and the inhibition in vivo at 0.3 mg/kg was 50%.
`CCCCCCC/C=C/C(=O)OC1CCCCC1` [Compound 18, Trans-2-decenoic acid cyclohexyl ester] was tested, and the inhibition in vivo at 0.3 mg/kg was 15.8%.
In the case of `C=CCCCCCCCC(=O)OCC` [Compound 22, Trans-9-decenoic acid ethyl ester], the inhibition in vivo at 0.3 mg/kg is reported as 67.9%.
`CCCCCCC/C=C/C(=O)OCCC` [Compound 5, Trans-2-decenoic acid propyl ester] was tested, and the inhibition in vivo at 0.3 mg/kg was 71.2%.

The molecules below were run on paclitaxel-induced peripheral nerve disorder rats (assay: Repeated intraperitoneal administration, hyperalgesia by paclitaxel (von Frey test)). Settings: prophylactic i.p. 0.50 mg/kg/day, paclitaxel; male SD rats.
Assay type: in vivo, rat
Procedure: With regard to male SD rats of six weeks age used as the experimental animals, their 50% reaction threshold values to the mechanical stimulus (the measuring method will be mentioned later) and body weights were measured and then the following seven groups each comprising eight rats was organized. • Normal control group • Onset control group • Prophylactic administration group with 0.25 mg/kg/day of a test drug • Prophylactic administration group with 0.50 mg/kg/day of a test drug • Therapeutic administration group with 0.25 mg/kg/day of a test drug • Therapeutic administration group with 0.50 mg/kg/day of a test drug • Therapeutic administration group with 30 mg/kg/day of gabapentin (positive control)
Taxol (registered trademark) injection 30 mg (manufactured by Bristol-Myers Squibb) containing 6 mg/mL of paclitaxel was used. To the rats of each of the above groups except the normal control group was intraperitoneally administered paclitaxel diluted to 2 mg/mL with saline in a dose of 2 mg/kg four times every other day whereupon the paclitaxel-induced peripheral nerve disorder rats were prepared. To the normal control group, an equivalent mixture of ethanol and Cremophor EL (registered trademark; manufactured by Sigma; a solvent for Taxisol (registered trademark) injection) diluted with saline to an extent of 3-fold was administered similarly.
To prophylactic administration groups of a test drug, the compound 4 in a dose of 0.25 mg/kg/day or 0.50 mg/kg/day was repeatedly administered intraperitoneally since immediately after initiation of administration of paclitaxel until 13 days thereafter. Meanwhile, to therapeutic administration groups of a test drug and to a therapeutic administration group of gabapentin, the compound 4 in a dose of 0.25 mg/kg/day or 0.50 mg/kg/day or gabapentin in a dose of 30 mg/kg/day, respectively was repeatedly administered intraperitoneally during the period of from 14 days to 42 days after initiation of the administration of paclitaxel.
The seven groups of rats of the above (1) were placed in a transparent acrylic cage with a wire-meshed floor and habituated for about three minutes and the 50% reaction threshold values to the mechanical stimulus of right hind limb were measured after 3, 7, 14, 21, 28, 35 and 42 days from initiation of the administration of paclitaxel. Incidentally, during the period of administration of a test drug, its values were measured after 24 hours from the last administration of a test drug.
The measurement was conducted using von Frey filaments (manufactured by North Coast Medical Inc.) in accordance with the methods of Chaplan, et al. (Journal of Neuroscience Methods, vol. 53, no. 1, pages 55 to 63, 1994) and Dixon, et al. (Annual Review of Pharmacology and Toxicology, vol. 20, pages 441 to 462, 1980). […] The case where the rat escaped at the instance of removing the filament was also called positive. When the positive reaction was noted, stimulus was conducted similarly using a filament of one rank weaker while, when no reaction was noted, stimulus was conducted similarly using a filament of one rank stronger and the point when the reaction changed from negative to positive or from positive to negative was called the first two reactions. […] A 50% reaction threshold value to the mechanical stimulus was measured using the reaction to the six stimuli in total and then (mean value) ± (standard error) for each group was calculated. […]
With `CCCCCCC/C=C/C(=O)O` [trans-2-decenoic acid, reference compound] the “50% reaction threshold values to the mechanical stimulus vs onset control group” value was “no difference from the onset control group”.
